Earlier results in patent US20250295592A1, “Method for Controlled Release Oral Drug Delivery” (priority 2024, published 2025).
Read-outs that look alike come from different tables or passages of the source.

[1] = human stomach, acidic gastric contents

| Structure (SMILES) | absorption from the stomach [1] | absorption from the stomach (in vivo) |
| --- | --- | --- |
| C=CCC1(C(C)CCC)C(=O)NC(=O)NC1=O (stereo not shown) [secobarbital] | readily absorbed |  |
| Cc1cc(=O)n(-c2ccccc2)n1C [antipyrine] |  | readily absorbed |
| CCCC(C)C1(CC)C(=O)NC(=S)NC1=O (stereo not shown) [thiopental] | readily absorbed |  |
| CC(=O)Oc1ccccc1C(=O)O [aspirin] | readily absorbed |  |
